Test results taken from ChEMBL document CHEMBL1201862, “PubChem BioAssay data set” (2004).
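Following 48 hours of exposure in 96-well plates, responses at five concentrations were used to interpolate endpoints linearly. At the GI50, growth is halved.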 Calls of active or inactive are those of the source. No stated cut-off is given here; in the data, active = GI50 up to about 1.1 µM and inactive = higher.

How the values were obtained:
Assay in all cases: DTP human tumour cell line panel, 48 h
786-0 = system: 786-0
A498 = system: A498
ACHN = system: ACHN
BT-549 = system: BT-549
CAKI-1 = system: CAKI-1
CCRF-CEM = system: CCRF-CEM
COLO 205 = system: COLO 205
DU-145 = system: DU-145
EKVX = system: EKVX
HCC 2998 = system: HCC 2998
HCT-116 = system: HCT-116
HCT-15 = system: HCT-15
HL-60 = system: HL-60
HOP-62 = system: HOP-62
HOP-92 = system: HOP-92
HT-29 = system: HT-29
IGROV-1 = system: IGROV-1
KM12 = system: KM12
LOX IMVI = system: LOX IMVI
MCF7 = system: MCF7
MDA-MB-231 = system: MDA-MB-231
MDA-MB-435 = system: MDA-MB-435
MDA-N = system: MDA-N
MOLT-4 = system: MOLT-4
Malme-3M = system: Malme-3M
NCI-H226 = system: NCI-H226
NCI-H23 = system: NCI-H23
NCI-H460 = system: NCI-H460
NCI-H522 = system: NCI-H522
OVCAR-3 = system: OVCAR-3
OVCAR-4 = system: OVCAR-4
OVCAR-5 = system: OVCAR-5
PC-3 = system: PC-3
RPMI-8226 = system: RPMI-8226
RXF 393 = system: RXF 393
SF-268 = system: SF-268
SF-295 = system: SF-295
SK-MEL-28 = system: SK-MEL-28
SK-MEL-2 = system: SK-MEL-2
SK-MEL-5 = system: SK-MEL-5
SK-OV-3 = system: SK-OV-3
SN12C = system: SN12C
SNB-19 = system: SNB-19
SR = system: SR
SW-620 = system: SW-620
TK-10 = system: TK-10
U-251 = system: U-251
UACC-257 = system: UACC-257
UACC-62 = system: UACC-62
UO-31 = system: UO-31

With `[N-]=[N+]=CC(=O)OCCCCl` the GI50 (786-0) was > 100 µM (inactive), the GI50 (A498) was > 100 µM (inactive) and the GI50 (ACHN) was > 100 µM (inactive). For the same compound, the GI50 (BT-549) was > 100 µM (inactive), the GI50 (CAKI-1) was > 100 µM (inactive) and the GI50 (CCRF-CEM) was > 100 µM (inactive). For the same compound, the GI50 (COLO 205) was > 100 µM (inactive), the GI50 (DU-145) was > 100 µM (inactive) and the GI50 (EKVX) was > 100 µM (inactive). For the same compound, the GI50 (HCC 2998) was > 100 µM (inactive), the GI50 (HCT-116) was > 100 µM (inactive) and the GI50 (HCT-15) was greater than 100 µM. The GI50 (HL-60) was > 100 µM (inactive), the GI50 (HOP-62) was > 100 µM (inactive) and the GI50 (HOP-92) was > 100 µM (inactive). For the same compound, the GI50 (HT-29) was > 100 µM (inactive), the GI50 (IGROV-1) was > 100 µM (inactive) and the GI50 (KM12) was > 100 µM (inactive). The GI50 (LOX IMVI) was > 100 µM (inactive), the GI50 (MCF7) was > 100 µM (inactive) and the GI50 (MDA-MB-231) was > 100 µM (inactive). For the same compound, the GI50 (MDA-MB-435) was > 100 µM (inactive), the GI50 (MDA-N) was > 100 µM (inactive) and the GI50 (MOLT-4) was > 100 µM (inactive). The GI50 (Malme-3M) was > 100 µM (inactive), the GI50 (NCI-H226) was > 100 µM (inactive) and the GI50 (NCI-H23) was > 100 µM (inactive). For the same compound, the GI50 (NCI-H460) was 4.37 µM (inactive), the GI50 (NCI-H522) was > 100 µM (inactive) and the GI50 (OVCAR-3) was > 100 µM (inactive). The GI50 (OVCAR-4) was > 100 µM (inactive), the GI50 (OVCAR-5) was > 100 µM (inactive) and the GI50 (PC-3) was > 100 µM (inactive). For the same compound, the GI50 (RPMI-8226) was > 100 µM (inactive), the GI50 (RXF 393) was > 100 µM (inactive) and the GI50 (SF-268) was > 100 µM (inactive). For the same compound, the GI50 (SF-295) was > 100 µM (inactive), the GI50 (SK-MEL-28) was > 100 µM (inactive) and the GI50 (SK-MEL-2) was > 100 µM (inactive). The GI50 (SK-MEL-5) was > 100 µM (inactive), the GI50 (SK-OV-3) was > 100 µM (inactive) and the GI50 (SN12C) was > 100 µM (inactive). For the same compound, the GI50 (SNB-19) was > 100 µM (inactive), the GI50 (SR) was 4.25 µM (inactive) and the GI50 (SW-620) was > 100 µM (inactive). For the same compound, the GI50 (TK-10) was > 100 µM (inactive), the GI50 (U-251) was > 100 µM (inactive) and the GI50 (UACC-257) was > 100 µM (inactive). The GI50 (UACC-62) was > 100 µM (inactive) and the GI50 (UO-31) was > 100 µM (inactive).
